Assay results published in PubChem BioAssay (NCI).
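Method: 48-hour compound exposure of cells in 96-well plates, five concentrations, linear interpolation of endpoints. GI50 marks 50% less growth. TGI: concentration producing complete growth inhibition.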

Assays:
Test in all cases: NCI anticancer screen, dose series, 48 h; in the data active = GI50 below about 0.43 µM; inactive = the rest
[1] = tested on: A498 renal
[2] = tested on: M14 melanoma
[3] = tested on: A549 NSCLC
[4] = tested on: HT29 colon
[5] = tested on: HCC-2998 colon
[6] = tested on: DU-145 prostate
[7] = tested on: NCI-H522 lung
[8] = tested on: PC-3 prostate
[9] = tested on: RPMI-8226 leukemia
[10] = tested on: OVCAR-8 ovarian
[11] = tested on: SN12C renal
[12] = tested on: SNB-19 CNS
[13] = tested on: MOLT-4 leukemia
[14] = tested on: HOP-62 NSCLC
[15] = tested on: SNB-75 CNS
[16] = tested on: SK-MEL-5 melanoma
[17] = tested on: SF-295 CNS
[18] = tested on: NCI/ADR-RES ovarian
[19] = tested on: KM12 colon
[20] = tested on: NCI-H23 lung
[21] = tested on: NCI-H460 lung
[22] = tested on: TK-10 renal
[23] = tested on: UO-31 renal
[24] = tested on: MCF7 breast
[25] = tested on: MALME-3M melanoma
[26] = tested on: HCT-15 colon
[27] = tested on: OVCAR-4 ovarian
[28] = tested on: SK-OV-3 ovarian
[29] = tested on: SK-MEL-2 melanoma
[30] = tested on: 786-0 renal
[31] = tested on: SF-539 CNS
[32] = tested on: T-47D breast
[33] = tested on: SF-268 CNS
[34] = tested on: MDA-MB-435
[35] = tested on: EKVX NSCLC
[36] = tested on: SR leukemia
[37] = tested on: U251 CNS
[38] = tested on: HCT-116 colon
[39] = tested on: OVCAR-3 ovarian
[40] = tested on: BT-549 breast
[41] = tested on: SW-620 colon
[42] = tested on: NCI-H226 lung
[43] = tested on: ACHN renal
[44] = tested on: RXF 393 renal
[45] = tested on: CCRF-CEM leukemia
[46] = tested on: OVCAR-5 ovarian
[47] = tested on: UACC-257 melanoma
[48] = tested on: LOX IMVI melanoma
[49] = tested on: SK-MEL-28 melanoma
[50] = tested on: COLO 205 colon
[51] = tested on: UACC-62 melanoma
[52] = tested on: HOP-92 NSCLC
[53] = tested on: MDA-MB-231 breast
[54] = tested on: HS 578T breast
[55] = tested on: HL-60(TB) leukemia
[56] = tested on: IGROV1 ovarian

O=C(O)c1sccc1O
73.5 µM: TGI [53]
99.2 µM: TGI [16]
90.1 µM: TGI [55]
inactive: GI50 [1] 52.3 µM | GI50 [2] 27 µM | GI50 [3] 50.3 µM | GI50 [4] 57.5 µM | GI50 [5] 36.6 µM | GI50 [6] 48 µM | GI50 [7] 25.4 µM | GI50 [8] 24.2 µM | GI50 [9] 25.2 µM | GI50 [10] 47.7 µM | GI50 [11] 32.7 µM | GI50 [12] 41.3 µM | GI50 [13] 34.9 µM | GI50 [14] 22.2 µM | GI50 [15] 15.9 µM | GI50 [16] 25.3 µM | GI50 [17] 34.8 µM | GI50 [18] 40.5 µM | GI50 [19] 30.6 µM | GI50 [20] 37.3 µM | GI50 [21] 33.5 µM | GI50 [22] 89.6 µM | GI50 [23] 15.2 µM | GI50 [24] 31.5 µM | GI50 [25] 83.4 µM | GI50 [26] 32.1 µM | GI50 [27] 26.4 µM | GI50 [28] > 100 µM | GI50 [29] 35.1 µM | GI50 [30] 60.9 µM | GI50 [31] 28.8 µM | GI50 [32] 33.3 µM | GI50 [33] 33.2 µM | GI50 [34] 27.1 µM | GI50 [35] 21.7 µM | GI50 [36] 34.5 µM | GI50 [37] 34.7 µM | GI50 [38] 31.2 µM | GI50 [39] 32.7 µM | GI50 [40] 21.6 µM | GI50 [41] 31.4 µM | GI50 [42] > 100 µM | GI50 [43] 28.6 µM | GI50 [44] 32 µM | GI50 [45] 31.9 µM | GI50 [46] 76.3 µM | GI50 [47] 47.2 µM | GI50 [48] 26.4 µM | GI50 [49] 32.2 µM | GI50 [50] 60.1 µM | GI50 [51] 17.9 µM | GI50 [52] 24.9 µM | GI50 [53] 16.4 µM | GI50 [54] 24.9 µM | GI50 [55] 33.9 µM | GI50 [56] 21.8 µM
80.7 µM: TGI [7]
52 µM: TGI [51]
> 100 µM: TGI [1] | TGI [2] | TGI [3] | TGI [4] | TGI [5] | TGI [6] | TGI [8] | TGI [9] | TGI [10] | TGI [11] | TGI [12] | TGI [13] | TGI [14] | TGI [15] | TGI [17] | TGI [18] | TGI [19] | TGI [20] | TGI [21] | TGI [22] | TGI [23] | TGI [24] | TGI [25] | TGI [26] | TGI [27] | TGI [28] | TGI [29] | TGI [30] | TGI [31] | TGI [32] | TGI [33] | TGI [34] | TGI [35] | TGI [36] | TGI [37] | TGI [38] | TGI [39] | TGI [40] | TGI [41] | TGI [42] | TGI [43] | TGI [44] | TGI [45] | TGI [46] | TGI [47] | TGI [48] | TGI [49] | TGI [50] | TGI [52] | TGI [54] | TGI [56]
